This note sets out measurements from patent US20010023252A1, “Novel compound” (SmithKline Beecham Plc, priority 1998, published 2001).

A short description of this series: Aqueous solubility of the salt (stated in words). It counts as physicochemical. The note with it: water, compared with the hydrochloride salt.

For paroxetine methanesulfonate, the “aqueous solubility (in words)” value is reported as “highly water soluble”. Besides, the “aqueous solubility (in words)” value (listed as methanesulfonate salt of paroxetine) was “significantly more soluble than the hydrochloride salt”.
